Columns and labels:
[1] = system: general viable bacteria; assay: Hand sterilization test (Sterilization Test 2); conditions: 1.4 ml sprayed on washed and dried hand; swab sample 1 minute later; cultured 48 hours at 37° C.
[2] = system: Campylobacter jejuni subsp. Jejuni JCM2013; assay: Sterilization test on beef (yukhoe; raw beef); assay type: cell-based; conditions: sprayed and mixed into inoculated beef; 24 hours after storage at 10° C.
[3] = system: Escherichia coli O-157 (enterohemorrhagic Escherichia coli O157: H7 EDL 933); assay: Cutting board sterilization test; assay type: cell-based; conditions: 0.7 ml sprayed on contaminated cutting board; swab sample 1 minute later; cultured 24 hours at 37° C.
[4] = system: Escherichia coli (NIHJ); assay: Sterilization effect determination test (Fujimoto's modified method of the Kelsey-Sykes method); assay type: cell-based; parameters: key: D: There is no sterilization effect.; C: There is a sterilization effect in step (1) but no sterilization effect in step (2).; B: There is a sterilization effect up to step (2) but no sterilization effect in step (3).; A: There is a sterilization effect up to step (3); conditions: water remainder
[5] = system: Staphylococcus aureus (209P); assay: as above; assay type: cell-based; parameters: key: D: There is no sterilization effect.; C: There is a sterilization effect in step (1) but no sterilization effect in step (2).; B: There is a sterilization effect up to step (2) but no sterilization effect in step (3).; A: There is a sterilization effect up to step (3); conditions: water remainder
[6] = Table 1, compositions of calcinated calcium and ethanol, 20° C., steps (1)-(3)
[7] = Table 2, compositions of calcinated calcium and ethanol, 20° C., steps (1)-(3)
[8] = Table 3, compositions with sodium lactate blended
[9] = Table 4, compositions with sodium lactate blended

| Compound | Sterilization effect [4, 6] | Sterilization effect [5, 7] | Sterilization effect [4, 8] | Sterilization effect [5, 9] | other results |
| --- | --- | --- | --- | --- | --- |
| CCO [70% ethanol, ethanol] |  |  |  |  | Hand sterilization results (general viable bacteria count) [1]: 6.2 × 10^3; viable bacteria count [2]: 10^5 to 10^6; Cutting board microbe eradication results (general viable bacteria count) [3]: 2.8 × 10^4 |
| CCO [Ethanol 5 wt %, ethanol] | D | D |  |  |  |
| CCO [Ethanol 10 wt %, ethanol] | D | D |  |  |  |
| CCO [Ethanol 20 wt %, ethanol] | D | D |  |  |  |
| CCO [Ethanol 50 wt %, ethanol] | B | D |  |  |  |
| CCO [Ethanol 75 wt %, ethanol] | B | B |  |  |  |
| CCO [Ethanol 100 wt %, ethanol] | A | A |  |  |  |
| CC(O)C(=O)[O-].[Na+] (stereo not shown) [Sodium lactate 1.5 wt %, sodium lactate] |  |  | D | D |  |
| CC(O)C(=O)[O-].[Na+] (stereo not shown) [Sodium lactate 3 wt %, sodium lactate] |  |  | D | D |  |
| CC(O)C(=O)[O-].[Na+] (stereo not shown) [Sodium lactate 4.5 wt %, sodium lactate] |  |  | D | D |  |
| CC(O)C(=O)[O-].[Na+] (stereo not shown) [Sodium lactate 6 wt %, sodium lactate] |  |  | D | D |  |
| CC(O)C(=O)[O-].[Na+] (stereo not shown) [Sodium lactate 9 wt %, sodium lactate] |  |  | no sterilization effect whatsoever and D | D |  |

Reference: patent US9060541B2, “Sterilizer for foods” (Kawakami Co., Ltd., priority 2009, dated 2015)
